{
  "source": "patent US20060233809A1",
  "about": "“Method for treating prostate conditions” (priority 2005, published 2006)",
  "key": {"BCRP [1]": {"biological_target": "T1, BCRP (Rattus norvegicus, UniProt Q80W57)", "T1 construct": "the Mx-RPE cells have a higher level of BCRP activity than RPE cells; endogenous in cells; host or cells: Mx-RPE (mitoxantrone-resistant subline of rat RPE cells)", "T1 sequence (Q80W57 1-657)": "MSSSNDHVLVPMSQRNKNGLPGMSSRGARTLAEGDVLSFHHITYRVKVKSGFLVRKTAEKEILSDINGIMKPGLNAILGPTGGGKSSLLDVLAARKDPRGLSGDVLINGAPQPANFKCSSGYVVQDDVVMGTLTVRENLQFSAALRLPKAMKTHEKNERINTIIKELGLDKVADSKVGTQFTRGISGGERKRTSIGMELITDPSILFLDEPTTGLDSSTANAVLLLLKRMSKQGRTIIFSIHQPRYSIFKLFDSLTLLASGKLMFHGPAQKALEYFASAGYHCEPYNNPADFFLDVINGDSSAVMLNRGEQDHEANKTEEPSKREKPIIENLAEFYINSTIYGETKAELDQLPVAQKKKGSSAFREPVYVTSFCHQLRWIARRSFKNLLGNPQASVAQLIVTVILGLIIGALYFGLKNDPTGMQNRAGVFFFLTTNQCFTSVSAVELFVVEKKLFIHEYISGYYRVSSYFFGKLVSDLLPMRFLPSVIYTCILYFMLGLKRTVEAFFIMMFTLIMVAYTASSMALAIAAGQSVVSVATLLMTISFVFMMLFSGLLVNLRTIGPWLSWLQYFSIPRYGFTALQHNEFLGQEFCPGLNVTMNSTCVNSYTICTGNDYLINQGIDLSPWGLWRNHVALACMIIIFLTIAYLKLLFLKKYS", "format": "cell-based", "details": "Mx-RPE cells", "source_text": "(§1) Data for Hoechst 33342 efflux represent two independent experiments (n>1,000 cells, *** P<0.0001).\nRat prostate progenitor (stem cell-like) cell lines (RPE, DP2, DP3, and DP4) were established from regenerating prostates of Fischer-344 rats and were maintained in prostate growth media (Presnell et al., Prostate Cancer Prostatic Dis (1999); 2:257-63) supplemented with 2% fetal bovine serum (FBS; Hyclone, Logan, UT) without androgen supplementation. […] A subpopulation of RPE cells was selected for resistance to mitoxantrone (Mx-RPE) by continuous culture in increasing concentrations of mitoxantrone (0.2-4 μmol/L; Sigma).\nAdditionally, novobiocin and fumitremorgin C were compared in RPE cells as inhibitors of BCRP-mediated efflux of Hoechst 33342, the marker utilized to identify the side population phenotype of stem cells. Fumitremorgin C is a specific inhibitor for BCRP-mediated transport. […] The moderate increase in nuclear Hoechst 33342 dye in RPE cells with inhibited BCRP function reflects a combination of the limited dynamic range of digital imaging technology and the constitutive expression of MDR-1 in the RPE cells (data not shown) because MDR-1 also effectively transports Hoechst 33342 dye; however, novobiocin and fumitremorgin C inhibit only the BCRP-mediated component of Hoechst efflux, not MDR-1 function (Doyle et al., Oncogene (2003); 22:7340-58; Shiozawa et al., Int. J. Cancer (2004); 108:146-51)."}, "BCRP [2]": {"biological_target": "T1, BCRP", "format": "cell-based", "details": "RPE cells", "source_text": "as §1\n(§2) Additionally, novobiocin and fumitremorgin C were compared in RPE cells as inhibitors of BCRP-mediated efflux of Hoechst 33342, the marker utilized to identify the side population phenotype of stem cells. Fumitremorgin C is a specific inhibitor for BCRP-mediated transport."}, "[3]": {"details": "limiting use in vivo; cited from earlier work"}, "[4]": {"system": "AR protein in RPE cells (BCRP-mediated transport)", "assay": "Immunocytochemical analysis of nuclear-localized AR protein in RPE cells", "format": "cell-based, rat", "details": "50 μmol/L novobiocin and/or 3 nmol/L dihydrotestosterone, 14 hours; immunocytochemistry, n>200 cells/group"}, "DP3 cell line": {"system": "DP3 cell line", "assay": "Intracellular [3H]dihydrotestosterone accumulation in BCRP-lacking DP3 control cell line", "format": "cell-based, rat", "details": "DP3 cell line (lacks BCRP)", "source_text": "as §2"}, "TRAMP mice": {"system": "TRAMP mice", "assay": "Foci of SV40Tag+ cells in prostates of castrated TRAMP mice treated with novobiocin", "format": "in vivo, mouse", "details": "novobiocin 25 mg/kg/5 times a week", "source_text": "In this model, the PB-SV40 large T antigen transgene (SV40Tag) is expressed specifically in the epithelial cells of the murine prostate. Cells expressing the SV40Tag transgene can be detected by immunohistological methods using labeled monoclonal antibodies to SV40Tag. Adenocarcinoma of the prostate in TRAMP mice arises as early as eight weeks of age and is characterized by tumor cells that uniformly express high levels of AR and that regress upon castration. In contrast, poorly differentiated neuroendocrine-like carcinomas in TRAMP mice are characterized by expression of the neuroendocrine marker synaptophysin, and an absence, or weak and heterogeneous expression of AR. Neuroendocrine-like carcinomas are rare in young TRAMP mice, but arise rapidly in mice that are castrated between 12 and 14 weeks of age (Kaplan-Lefko et al., Prostate (2003); 55:219-37; Johnson et al., Prostate (2005); 62:322-38).\nTreatment of the TRAMP mice with novobiocin (25 mg/kg/5 times a week), or saline (physiologic saline/5 times a week), was initiated at 13 weeks of age and all mice were castrated at 14 weeks of age (1 week following initiation of treatment). TRAMP mice were treated until 19 weeks of age, at which time the prostates, lymph nodes, small intestine, and liver were harvested and processed for analysis using standard techniques. […]"}, "[5]": {"system": "AR protein in RPE cells (BCRP function)", "assay": "Immunoblot analysis of AR protein in RPE cell lysates", "format": "cell-based, rat", "details": "50 μmol/L novobiocin and/or 3 nmol/L dihydrotestosterone; normalized to actin"}, "[6]": {"details": "cited from earlier work"}},
  "note": "Read-outs that look alike come from different tables or passages of the source.",
  "data": [
    {"molecule": "COc1ccc2c3c([nH]c2c1)[C@H](C=C(C)C)N1C(=O)[C@@H]2CCCN2C(=O)[C@@H]1C3", "note": "[fumitremorgin C]", "values": [
      {"measurement": "increase in intracellular levels of [3H]dihydrotestosterone", "setting": "BCRP [1]; 10 μmol/L fumitremorgin C", "result": 3.3, "unit": "fold"},
      {"measurement": "increase in nuclear Hoechst 33342 compared with the DMSO control", "setting": "BCRP [2]; 10 μmol/L fumitremorgin C", "result": 2.3, "unit": "fold"},
      {"measurement": "neurotoxicity", "setting": "[3]", "result": "extremely neurotoxic"}
    ]},
    {"molecule": "C[C@]12CCC(=O)C[C@@H]1CC[C@@H]1[C@@H]2CC[C@]2(C)[C@@H](O)CC[C@@H]12", "note": "[dihydrotestosterone]", "values": [
      {"measurement": "increase in the level of nuclear-localized AR in RPE cells", "setting": "[4]", "result": 2.8, "unit": "fold"}
    ]},
    {"molecule": "CO[C@@H]1[C@@H](OC(N)=O)[C@@H](O)[C@H](Oc2ccc3c(O)c(NC(=O)c4ccc(O)c(CC=C(C)C)c4)c(=O)oc3c2C)OC1(C)C", "note": "[novobiocin]", "values": [
      {"measurement": "increase in intracellular levels of [3H]dihydrotestosterone", "setting": "BCRP [1]; 5 mmol/L novobiocin", "result": 2.4, "unit": "fold"},
      {"measurement": "increase in intracellular levels of [3H]dihydrotestosterone", "setting": "BCRP [1]; 10 mmol/L novobiocin", "result": 5.5, "unit": "fold"},
      {"measurement": "effect on the level of accumulation of intracellular [3H]dihydrotestosterone", "setting": "DP3 cell line", "result": "no effect"},
      {"measurement": "establishment of recurrent growth in TRAMP", "setting": "TRAMP mice", "result": "inhibited establishment of recurrent growth"},
      {"measurement": "#Foci/Animal, pattern: >10 cells Differentiated", "setting": "TRAMP mice; 13 to 19 weeks of age", "result": "significant increase"},
      {"measurement": "increase in retention of Hoechst 33342", "setting": "BCRP [2]; 5 mmol/L novobiocin", "result": 1.2, "unit": "fold"},
      {"measurement": "increase in retention of Hoechst 33342", "setting": "BCRP [2]; 10 mmol/L novobiocin", "result": 1.45, "unit": "fold"},
      {"measurement": "increase in the level of nuclear-localized AR in RPE cells", "setting": "[4]", "result": 2.4, "unit": "fold"},
      {"measurement": "increase of AR protein in RPE cells (immunoblot)", "setting": "[5]", "result": 7, "unit": "fold"},
      {"measurement": "toxicity in humans", "setting": "[6]", "result": "well tolerated toxicity in humans"}
    ]}
  ]
}
